Test results from PMC7828111, “In Search for Multi-Target Ligands as Potential Agents for Diabetes Mellitus and Its Complications—A Structure-Activity Relationship Study on Inhibitors of Aldose Reductase and Protein Tyrosine Phosphatase 1B” (Molecules, 2021).

Experiments:
human recombinant AR [1] = biological target: T1, human recombinant AR (Homo sapiens, UniProt P15121); experiment: Reversibility of AR inhibition (dialysis); type: biochemical
T1 construct: made in house; host or cells: E. coli BL21(DE3)pLysS
Procedure: In order to evaluate the reversibility of the inhibitory action, 8 mU of purified AR were assayed in the presence of 5 μM of compounds 4a, 4e and 4f. In these conditions less than 15% of the enzyme activity was measured in the presence of 2 mM L-idose as substrate. The mixture was then extensively dialysed on Amicon ultrafiltration membrane (cut off 10 KDa) against 10 mM sodium phosphate buffer, pH 7.0. After dialysis, the enzyme activity was again measured as above and compared to that of a mixture in the absence of inhibitor and treated in the same conditions.

C2C12 cells = experiment: Cell viability, MTT assay, C2C12; type: cell-based, murine; settings: C2C12, 48 h
Procedure: Human liver cells (HepG2) and murine myoblasts (C2C12) were purchased by Sigma-Aldrich, which obtained them from the European Collection of Authenticated Cell Cultures (ECACC). HepG2 and C2C12 cells were grown in Dulbecco’s Modified Eagle’s medium (DMEM) supplemented with 10% foetal bovine serum (FBS), 2 mM glutamine, 100 IU/mL penicillin, 100 μg/mL streptomycin (Sigma-Aldrich, St. Louis, MO, USA), in a humidified atmosphere and with 5% CO2 at 37 °C. Differentiation of C2C12 was induced incubating murine myoblasts in DMEM supplemented with 2% horse serum. C2C12 cells were plated and grown until they reach 70% confluence. Then, cells were incubated in the presence of 2% horse serum for 96 h. Every 48 h, the medium was replaced with fresh medium. After 96 h, the degree of differentiation was evaluated analysing cells with a contrast phase microscope.
HepG2 and C2C12 cells were incubated in the presence of increasing concentrations of compounds 4e and 4f for 48 h at 37 °C. After this time, cells were washed with PBS and then incubated for 1 h with 0.5 mg/mL of MTT dissolved in complete medium. Then cells were washed and lysed with 300 μL of DMSO. The absorbance of solutions were evaluated using a microplate readers at 595 nm. All data were normalized respect to control experiment.

human recombinant AR [2] = biological target: T1, human recombinant AR; experiment: Inhibition of human recombinant AR, L-idose as substrate (NADPH oxidation at 340 nm); type: biochemical; settings: human recombinant AR, 2 mM L-idose as substrate; mean ± S.E.M
Procedure: The human recombinant AR was expressed in BL21(DE3)pLysS E. coli cells and purified to electrophoretic homogeneity as previously described. The purified enzyme (specific activity 5.0 U/mg) was stored at −80 °C in 10 mM sodium phosphate buffer pH 7.0 containing 2 mM dithiothreitol and 30% (w/v) glycerol. AR activity was determined at 37 °C as previously described evaluating the decrease in absorbance at 340 nm linked to NADPH oxidation. […] One unit of enzyme activity is the amount that catalyzes the conversion of 1 μmol of substrate/min in the above assay conditions.
All compounds tested as aldose reductase inhibitors were dissolved in DMSO and added to the assay mixture containing 8 mU of purified AR. The reaction was started by addition of the substrate. The DMSO concentration in all the assays was kept constant at 0.5% (v/v) in order to avoid effects on AR activity.
The IC50 values were determined by nonlinear regression analysis using Prism GraphPad 6.0 fitting experimental data to the following equation:(1) vi/v0= Max−Min/1+( I/IC50)^slope +Min
In the equation, vi/v0, represents the ratio between the activity measured in the presence of the inhibitor and the activity measured in the absence of inhibitor; Max and Min represent the expected maximal and minimal value of the activity and were fixed at 1 and zero, respectively. Slope, which describes the steepness of curve in the transition region, was fixed at −1. For each compound, at least five different concentrations of inhibitor in the triplicate assay were analyzed.

O=C(O)CCN1C(=O)/C(=C/c2ccc(OCCc3ccccc3)cc2)SC1=S [4f, 3-[(5Z)-4-Oxo-{5-[4-(2-phenylethoxy)phenyl]methylidene}-2-thioxothiazolidin-3-yl]propanoic acid]
AR enzyme activity recovered after removal of the inhibitor upon extensive dialysis (human recombinant AR [1]; 5 μM compound before dialysis): more than 90% | AR enzyme activity measured in the presence of compound (human recombinant AR [1]; 5 μM compound, 2 mM L-idose, before dialysis): less than 15% | Concentration at which a reduction of cell viability was observed (C2C12 cells; highest concentration tested): 50 µM | Cytotoxicity (cell viability, MTT) (C2C12 cells; up to 50 μM): well tolerated | IC50 (human recombinant AR [2]): 5.3 ± 0.4 µM
